From the supplement of paper PMC10307832

Legend:
Assay in all cases: relative viability (nuclei count vs DMSO), 5 days (fraction); higher = more cells survive
GSK126 + Linsitinib = compound: CC[C@H](C)N1C=C(C2=C(C=C(C=C21)C3=CN=C(C=C3)N4CCNCC4)C(=O)NCC5=C(C=C(NC5=O)C)C)C [GSK126] + C[C@]1(O)C[C@@H](c2nc(-c3ccc4ccc(-c5ccccc5)nc4c3)c3c(N)nccn32)C1 [Linsitinib] (partner 1 µM)
Summary of the method: (§1)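 Dosing by pin tool came one day after lung cancer cell lines were seeded in 1536-well plates, using either one drug or a fixed anchor-drug dose plus five library-drug doses (not always all listed) in √10 steps. After 5 days, nuclei were counted on 4× images. Relative viability is treated-well nuclei count divided by vehicle-well nuclei count, and values are medians of duplicate plates.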

MLN4924 + Linsitinib = compound: NS(=O)(=O)OC[C@@H]1C[C@@H](n2ccc3c(N[C@H]4CCc5ccccc54)ncnc32)C[C@@H]1O [MLN4924] + C[C@]1(O)C[C@@H](c2nc(-c3ccc4ccc(-c5ccccc5)nc4c3)c3c(N)nccn32)C1 [Linsitinib] (partner 1 µM)
Summary of the method: as §1

GSK126 + Palbociclib = compound: CC[C@H](C)N1C=C(C2=C(C=C(C=C21)C3=CN=C(C=C3)N4CCNCC4)C(=O)NCC5=C(C=C(NC5=O)C)C)C [GSK126] + CC(=O)c1c(C)c2cnc(Nc3ccc(N4CCNCC4)cn3)nc2n(C2CCCC2)c1=O [Palbociclib] (partner 0.5 µM)
Summary of the method: as §1

GSK126 + Vorinostat = compound: CC[C@H](C)N1C=C(C2=C(C=C(C=C21)C3=CN=C(C=C3)N4CCNCC4)C(=O)NCC5=C(C=C(NC5=O)C)C)C [GSK126] + O=C(CCCCCCC(=O)Nc1ccccc1)NO [Vorinostat] (partner 1 µM)
Summary of the method: as §1

Cell Line	relative viability (GSK126 + Linsitinib; first compound 0.08 µM)	relative viability (GSK126 + Linsitinib; first compound 0.253 µM)	relative viability (GSK126 + Linsitinib; first compound 0.8 µM)	relative viability (GSK126 + Linsitinib; first compound 2.53 µM)	relative viability (GSK126 + Linsitinib; first compound 8 µM)	relative viability (MLN4924 + Linsitinib; first compound 0.04 µM)	relative viability (MLN4924 + Linsitinib; first compound 0.1265 µM)	relative viability (MLN4924 + Linsitinib; first compound 0.4 µM)	relative viability (MLN4924 + Linsitinib; first compound 1.265 µM)	relative viability (MLN4924 + Linsitinib; first compound 4 µM)	relative viability (GSK126 + Palbociclib; first compound 0.08 µM)	relative viability (GSK126 + Palbociclib; first compound 0.253 µM)	relative viability (GSK126 + Palbociclib; first compound 0.8 µM)	relative viability (GSK126 + Palbociclib; first compound 2.53 µM)	relative viability (GSK126 + Palbociclib; first compound 8 µM)	relative viability (GSK126 + Vorinostat; first compound 0.08 µM)	relative viability (GSK126 + Vorinostat; first compound 0.253 µM)	relative viability (GSK126 + Vorinostat; first compound 0.8 µM)	relative viability (GSK126 + Vorinostat; first compound 2.53 µM)	relative viability (GSK126 + Vorinostat; first compound 8 µM)
NCI-H1793	1.04	0.777	0.748	0.982	0.82	1.12	0.857	0.845	0.327	0.168	0.351	0.318	0.299	0.351	0.273	0.841	0.703	0.717	0.825	0.671
HCC-44	0.681	0.692	0.659	0.7	0.715	0.561	0.219	0.199	0.156	0.129	0.96	1.04	1.01	0.916	0.894	1.15	1.15	1.05	1.08	1.15
NCI-H3122	1.03	0.998	0.86	1.05	1.04	0.958	0.429	0.291	0.172	0.115	0.225	0.181	0.181	0.183	0.187	1.14	1.15	0.933	1.06	1.18
COR-L23	1.06	1.12	0.918	0.912	0.99	0.788	0.801	0.619	0.149	0.11	0.307	0.265	0.259	0.279	0.352	0.56	0.42	0.461	0.453	0.407
201T	1.04	1.11	1.06	1.07	1.18	1.22	1.29	1.17	0.481	0.505	0.442	0.356	0.378	0.387	0.382	1.05	1.04	0.954	1.13	1.15
NCI-H23	0.63	0.528	0.442	0.592	0.725	0.632	0.405	0.203	0.135	0.149	0.6	0.583	0.565	0.628	0.515	0.936	0.627	0.639	0.632	0.527
LCLC-103H	1.13	1.16	1.06	1.07	1.08	1.33	1.21	1.2	0.316	0.355	0.452	0.546	0.466	0.441	0.5	0.888	0.906	0.77	0.786	0.761
NCI-H2087	0.979	0.942	0.931	0.885	0.967	0.775	0.776	0.311	0.172	0.187	0.217	0.215	0.191	0.212	0.206	0.847	0.523	0.652	0.652	1.15
NCI-H1944	1.48	1.18	1.15	1.22	1.33	1.38	1.19	1.02	0.257	0.37	0.407	0.334	0.332	0.36	0.352	0.656	0.524	0.601	0.566	0.594
HARA	1.01	0.898	0.872	0.976	0.836	0.568	0.455	0.481	0.092	0.0886	0.325	0.238	0.249	0.296	0.279	0.554	0.47	0.551	0.51	0.41
NCI-H2347	1.04	0.943	0.916	0.885	0.965	0.908	0.731	0.57	0.424	0.41	0.46	0.385	0.469	0.422	0.439	0.659	0.479	0.503	0.601	0.563
COR-L 105	1.01	1.06	0.729	0.997	0.858	0.8	0.615	0.424	0.283	0.231	0.42	0.423	0.421	0.377	0.415	0.963	0.828	0.639	0.826	0.68
A-427	1.19	1.19	1.09	1.17	1.11	0.686	0.381	0.315	0.222	0.217	0.534	0.519	0.517	0.5	0.491	0.863	0.833	0.865	0.958	0.896
HCC-15	0.927	0.683	0.891	0.957	0.827	0.558	0.249	0.16	0.0968	0.104	0.759	0.855	0.692	0.573	0.671	0.887	0.756	0.843	0.816	0.714
NCI-H2342	–	–	–	–	–	–	–	–	–	–	0.566	0.575	0.508	0.572	0.522	0.82	0.753	0.74	0.725	0.857
NCI-H2023	0.778	0.679	0.644	0.757	0.755	0.661	0.36	0.112	0.0836	0.0754	0.505	0.442	0.349	0.442	0.399	0.962	0.804	0.533	0.709	0.712
